Measurements reported in patent publication US20240285621A1, “PYRAZOLYL-PYRIMIDINE DERIVATIVES AS KINASE INHIBITORS” (NERVIANO MEDICAL SCIENCES S.R.L., priority 2020, published 2024).

Experiments:
SYK [1] = target: T1, SYK (Homo sapiens, UniProt P43405); assay: Biochemical kinase inhibition assay on SYK, KinaseGlo assay format; conditions: Table A; KinaseGlo format, pre-activated SYK 2.5 nM, ATP 2.5 μM, substrate BioDBn*327 125 uM, 60 minutes at rt; read-out: IC50 (μM) Kglo
T1 construct: Recombinant proteins SYK FL was produced at NMS via baculo virus infection in insect cells; His; GST; made in house; host or cells: insect cells (baculovirus)

SYK [2] = target: T1, SYK; assay: Biochemical kinase inhibition assay on SYK, ADPGlo assay format; conditions: Table A, pre-activated SYK 0.6 nM, ATP 60 μM, BioDBn*327 125 μM, 60 minutes at room temperature

Structure (SMILES) | IC50 (SYK [1]) | IC50 (SYK [2])
COc1cc(Nc2nccc(-c3cc(C(=O)N[C@@H](C)CN4CCCC4)n(C)n3)n2)cc(OC)c1 [Example 69, 3-{2-[(3,5-dimethoxyphenyl)amino]pyrimidin-4-yl}-1-methyl-N-[(2S)-1-(pyrrolidin-1-yl)propan-2-yl]-1H-pyrazole-5-carboxamide] | 0.008 µM | 0.01 µM
C[C@@H](CN(C)C)NC(=O)c1cc(-c2ccnc(Nc3cnn(C)c3)n2)nn1C [Example 75, N-[(2S)-1-(dimethylamino)propan-2-yl]-1-methyl-3-{2-[(1-methyl-1H-pyrazol-4-yl)amino]pyrimidin-4-yl}-1H-pyrazole-5-carboxamide] | 0.273 µM | 0.473 µM
COc1cncc(Nc2nccc(-c3cc(C(=O)N[C@@H](C)CN4CCC4)n(C)n3)n2)c1 [Example 80, N-[(2S)-1-(azetidin-1-yl)propan-2-yl]-3-{2-[(5-methoxypyridin-3-yl)amino]pyrimidin-4-yl}-1-methyl-1H-pyrazole-5-carboxamide] | 0.044 µM | 0.081 µM
COc1cc(Nc2nccc(-c3cc(C(=O)N[C@@H](C)CN(C)C)n(C)n3)n2)cc(OC)c1 [Example 67, 3-{2-[(3,5-dimethoxyphenyl)amino]pyrimidin-4-yl}-N-[(2S)-1-(dimethylamino)propan-2-yl]-1-methyl-1H-pyrazole-5-carboxamide] | < 0.004 µM | 0.014 µM
COc1cc(Nc2nccc(-c3cc(C(=O)NCCN(C)C)n(C)n3)n2)cc(OC)c1 [Example 72, 3-{2-[(3,5-dimethoxyphenyl)amino]pyrimidin-4-yl}-N-[2-(dimethylamino)ethyl]-1-methyl-1H-pyrazole-5-carboxamide] | 0.034 µM | 0.087 µM
COc1cc(F)cc(Nc2nccc(-c3cc(C(=O)N[C@@H](C)CN(C)C)n(C)n3)n2)c1 [Example 65, N-[(2S)-1-(dimethylamino)propan-2-yl]-3-{2-[(3-fluoro-5-methoxyphenyl)amino]pyrimidin-4-yl}-1-methyl-1H-pyrazole-5-carboxamide] | 0.009 µM | 0.038 µM
